Laboratory results as given in US20190100534A1, “Cephem Compounds with Latent Reactive Groups” (Gladius Pharmaceuticals, Inc., priority 2017, published 2019).

Key:
Assay type in all cases: cell-based
[1] = tested on: Pseudomonas aeruginosa (PA); experiment: MIC determination; details: Pseudomonas aeruginosa; PA; CAMH broth, 20 μM Apo-Transferrin, 37° C., 18 hours; read-out: Minimum Inhibitory Concentrations, PA
In short: (§1)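 Using an iron-depleting medium (CAMH plus 20 μM apo-transferrin), organisms at 0.5 McFarland faced compound from 64 μg/mL downward in twofold steps. Readout: visual, after 18 h at 37 °C.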

[2] = tested on: Pseudomonas aeruginosa PA (RR-1); experiment: MIC determination; details: Pseudomonas aeruginosa; PA (RR-1); CAMH broth, 20 μM Apo-Transferrin, 37° C., 18 hours; read-out: Minimum Inhibitory Concentrations, PA (RR-1)
In short: as §1

[3] = tested on: Pseudomonas aeruginosa PA (RR-2); experiment: MIC determination; details: Pseudomonas aeruginosa; PA (RR-2); CAMH broth, 20 μM Apo-Transferrin, 37° C., 18 hours; read-out: Minimum Inhibitory Concentrations, PA (RR-2)
In short: as §1

[4] = tested on: Pseudomonas aeruginosa PA (URMC-2); experiment: MIC determination; details: Pseudomonas aeruginosa; PA (URMC-2); CAMH broth, 20 μM Apo-Transferrin, 37° C., 18 hours; read-out: Minimum Inhibitory Concentrations, PA (URMC-2)
In short: as §1

[5] = tested on: Pseudomonas aeruginosa PA (URMC-3); experiment: MIC determination; details: Pseudomonas aeruginosa; PA (URMC-3); CAMH broth, 20 μM Apo-Transferrin, 37° C., 18 hours; read-out: Minimum Inhibitory Concentrations, PA (URMC-3)
In short: as §1

[6] = tested on: Pseudomonas aeruginosa PA-RR-(980151052); experiment: MIC determination; details: Pseudomonas aeruginosa; PA-RR-(980151052); CAMH broth, 20 μM Apo-Transferrin, 37° C., 18 hours; read-out: Minimum Inhibitory Concentrations, PA-RR-(980151052)
In short: as §1

[7] = tested on: Pseudomonas aeruginosa PA-RR-(98023895); experiment: MIC determination; details: Pseudomonas aeruginosa; PA-RR-(98023895); CAMH broth, 20 μM Apo-Transferrin, 37° C., 18 hours; read-out: Minimum Inhibitory Concentrations, PA-RR-(98023895)
In short: as §1

[8] = tested on: Pseudomonas aeruginosa PA-RR-(G7294437); experiment: MIC determination; details: Pseudomonas aeruginosa; PA-RR-(G7294437); CAMH broth, 20 μM Apo-Transferrin, 37° C., 18 hours; read-out: Minimum Inhibitory Concentrations, PA-RR-(G7294437)
In short: as §1

[9] = tested on: Pseudomonas aeruginosa PA-RR-(G7304100); experiment: MIC determination; details: Pseudomonas aeruginosa; PA-RR-(G7304100); CAMH broth, 20 μM Apo-Transferrin, 37° C., 18 hours; read-out: Minimum Inhibitory Concentrations, PA-RR-(G7304100)
In short: as §1

[10] = tested on: Pseudomonas aeruginosa PA-RR-(G7305586); experiment: MIC determination; details: Pseudomonas aeruginosa; PA-RR-(G7305586); CAMH broth, 20 μM Apo-Transferrin, 37° C., 18 hours; read-out: Minimum Inhibitory Concentrations, PA-RR-(G7305586)
In short: as §1

[11] = tested on: Pseudomonas aeruginosa PA-RR-(G8062859); experiment: MIC determination; details: Pseudomonas aeruginosa; PA-RR-(G8062859); CAMH broth, 20 μM Apo-Transferrin, 37° C., 18 hours; read-out: Minimum Inhibitory Concentrations, PA-RR-(G8062859)
In short: as §1

[12] = tested on: Pseudomonas aeruginosa PA-RR-(purple Fre D); experiment: MIC determination; details: Pseudomonas aeruginosa, CAMH broth, 20 μM Apo-Transferrin, 37° C., 18 hours, read-out: Minimum Inhibitory Concentrations, PA-RR-(purple Fre D)
In short: as §1

E. coli J53 Alone = experiment: MIC determination, isogenic E. coli strains; details: for MIC: Escherichia coli, J53ALONE, 18 h, read-out: Mimimum Inhibitory Concentrations, J53 Alone; for Mimimum Inhibitory Concentrations, J53 Alone: Table 4-2, CAMH broth, 20 μM Apo-Transferrin, 37° C., 18 hours
In short: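 Broth microdilution in cation-adjusted Mueller-Hinton broth with 20 μM apo-transferrin, 2-fold compound series from 64 μg/mL. E. coli J53, alone or transformed with a pBC-SK(+) plasmid carrying the beta-lactamase gene (e.g. DHA-1), inoculated from 0.5 McFarland suspension; 18 h at 37° C; MIC = lowest concentration with clear well.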

[13] = tested on: Isogenic E. coli J58 strain carrying SHV-1; experiment: MIC determination, isogenic E. coli strains; details: Escherichia coli, 18 h, read-out: Mimimum Inhibitory Concentrations, SHV-1
In short: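 MIC is the lowest compound concentration leaving a transparent well after overnight (18 h) incubation at 37 °C. The test strain was E. coli J53 expressing plasmid-borne SHV-1 beta-lactamase from pBC-SK(+), adjusted to 0.5 McFarland. Compounds were twofold serially diluted, starting at 64 μg/mL, in CAMH broth supplemented with 20 μM apo-transferrin.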

[14] = tested on: Isogenic E. coli J58 strain carrying KPC-2; experiment: MIC determination, isogenic E. coli strains; details: Escherichia coli, 18 h, read-out: Mimimum Inhibitory Concentrations, KPC-2
In short: (§2)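 Broth microdilution in cation-adjusted Mueller-Hinton broth with 20 μM apo-transferrin, compound at 64 down to […], inoculum set to 0.5 McFarland. E. coli J53 transformed with pBC-SK(+) carrying the synthetic beta-lactamase gene was used. Plates were incubated 18 h at 37 °C; MIC is the lowest concentration giving a clear well.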

[15] = tested on: Isogenic E. coli J58 strain carrying KPC-3; experiment: MIC determination, isogenic E. coli strains; details: Escherichia coli, 18 h, read-out: Mimimum Inhibitory Concentrations, KPC-3
In short: as §2

[16] = tested on: Isogenic E. coli J58 strain carrying NDM-1; experiment: MIC determination, isogenic E. coli strains; details: Escherichia coli, 18 h, read-out: Mimimum Inhibitory Concentrations, NDM-1
In short: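 E. coli J53 transformed with a pBC-SK(+) plasmid encoding NDM-1 was adjusted to 0.08-0.1 OD600. It was grown 18 h at 37° C in CAMH broth containing 20 μM apo-transferrin with twofold compound dilutions from 64 μg/mL. MIC was taken as the lowest concentration giving a transparent well.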

[17] = tested on: Isogenic E. coli J58 strain carrying IMP-1; experiment: MIC determination, isogenic E. coli strains; details: Escherichia coli, 18 h, read-out: Mimimum Inhibitory Concentrations, IMP-1
In short: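 Broth microdilution in cation-adjusted Mueller-Hinton broth with 20 μM apo-transferrin, compound serially diluted two-fold from 64 μg/mL, against E. coli J53 carrying plasmid-borne IMP-1. Inoculum adjusted to 0.5 McFarland; plates incubated 18 h at 37° C. MIC taken as lowest concentration giving a clear well.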

| Compound | MIC [1] [µg/mL] | MIC [2] [µg/mL] | MIC [3] [µg/mL] | MIC [4] [µg/mL] | MIC [5] [µg/mL] | MIC [6] [µg/mL] | MIC [7] [µg/mL] | MIC [8] [µg/mL] | MIC [9] [µg/mL] | MIC [10] [µg/mL] | MIC [11] [µg/mL] | MIC [12] [µg/mL] | MIC (E. coli J53 Alone) [µg/mL] | Mimimum Inhibitory Concentrations, J53 Alone (E. coli J53 Alone) [microgram/mL] | MIC [13] [µg/mL] | MIC [14] [µg/mL] | MIC [15] [µg/mL] | MIC [16] [µg/mL] | MIC [17] [µg/mL] |
| --- | --- | --- | --- | --- | --- | --- | --- | --- | --- | --- | --- | --- | --- | --- | --- | --- | --- | --- | --- |
| CC(C)(O/N=C(\C(=O)N[C@@H]1C(=O)N2C(C(=O)O)=C(C=Cc3ccc(C[n+]4cccc(-c5ccc(O)c(O)c5)c4)cc3)CS[C@H]12)c1csc(N)n1)C(=O)O (mixture of isomers) [Compound 413, 1-(4-((E/Z)-2-((6R,7R)-7-((Z)-2-(2-aminothiazol-4-yl)-2-(((2-carboxypropan-2-yl)oxy)imino)acetamido)-2-carboxy-8-oxo-5-thia-1-azabicyclo[4.2.0]oct-2-en-3 yl)vinyl)benzyl)-3-(3,4-dihydroxyphenyl)pyridin-1-ium] | 4 | 4 | 2 | 4 | 0.13 | 4 | 4 | 1 | ≤ 0.06 | 8 | 2 | 2 | 0.25 | 0.25 | 2 | 8 | 4 | > 64 | 64 |
| Cc1c[n+](Cc2ccc(C=CC3=C(C(=O)O)N4C(=O)[C@@H](NC(=O)/C(=N\OC(C)(C)C(=O)O)c5csc(N)n5)[C@H]4SC3)cc2)ccc1-c1ccc(O)c(O)c1 (mixture of isomers) [Compound 422, 1-(4-((E/Z)-2-((6R,7R)-7-((Z)-2-(2-aminothiazol-4-yl)-2-(((2-carboxypropan-2-yl)oxy)imino)acetamido)-2-carboxy-8-oxo-5-thia-1-azabicyclo[4.2.0]oct-2-en-3-yl)vinyl)benzyl)-4-(3,4-dihydroxyphenyl)-3-methylpyridin-1-ium] | 8 | 4 | 2 | 4 | ≤ 0.06 | 8 | 8 | 2 | ≤ 0.06 | 16 | 2 | 1 | 0.25 | 0.25 | 2 | 16 | 8 | > 64 | > 64 |
| CC(C)(O/N=C(\C(=O)N[C@@H]1C(=O)N2C(C(=O)O)=C(C=Cc3ccc(C[N+](C)(C)Cc4ccc(O)c(O)c4)cc3)CS[C@H]12)c1csc(N)n1)C(=O)O (mixture of isomers) [Compound 426, N-(4-((E/Z)-2-((6R,7R)-7-((Z)-2-(2-aminothiazol-4-yl)-2-(((2-carboxypropan-2-yl)oxy)imino)acetamido)-2-carboxy-8-oxo-5-thia-1-azabicyclo[4.2.0]oct-2-en-3-yl)vinyl)benzyl)-1-(3,4-dihydroxyphenyl)-N,N-dimethylmethanaminium] | 4 | 4 | 2 | 4 | 64 | 4 | 8 | 0.5 | 0.25 | 4 | 2 | 1 | 1 | 1 | 0.5 | 64 | 8 | > 64 | 32 |
| CC(C)(O/N=C(\C(=O)N[C@@H]1C(=O)N2C(C(=O)O)=C(C=Cc3ccc(C[N+]4(C)CCc5c(Cl)c(O)c(O)c(Cl)c5C4)cc3)CS[C@H]12)c1csc(N)n1)C(=O)O (mixture of isomers) [Compound 429, 2-(4-((E/Z)-2-((6R,7R)-7-((Z)-2-(2-aminothiazol-4-yl)-2-(((2-carboxypropan-2-yl)oxy)imino)acetamido)-2-carboxy-8-oxo-5-thia-1-azabicyclo[4.2.0]oct-2-en-3-yl)vinyl)benzyl)-5,8 dichloro-6,7-dihydroxy-2-methyl-1,2,3,4-tetrahydroisoquinolin-2-ium] | 0.25 | 0.25 | ≤ 0.06 | 0.5 | 0.5 | 0.5 | 4 | ≤ 0.06 | ≤ 0.06 | 1 | 0.5 | 2 | ≤ 0.06 | ≤0.06 | 0.25 | 4 | 1 | > 64 | ≤ 0.06 |
